Reference: US6784153B1, “Methods of homing molecules to lung using membrane dipeptidase” (The Burnham Institute, priority 1998, dated 2004)
“Also recorded” adds a separate entry of the source.

Assays:
liver = assay: in vivo panning of X7 library, liver; parameters: species or system mice
Procedure: (§1) Following various in vivo panning screens, hundreds of thousands to millions of phage expressing homing peptides were recovered from the respective organ or tissue. Generally, the phage collected from a round of in vivo panning were plated on agar, about 250 to 300 clones were selected, grown in 5 ml cultures, then pooled and readministered for a subsequent round of in vivo panning (“regular method”). However, in some experiments, 1000 clones were selected, grown in 2 ml cultures, then pooled and administered for a subsequent round of screening; or the entire agar plate was scraped and all of the phage were cultured together and administered for a subsequent round of screening. The peptide inserts of various isolated phage were determined such that, of the millions of phage that homed, only a small number of sequences were identified.
Also provided are liver homing peptides. Such peptides were identified by injection of an X7 (SEQ ID NO: 29) library into mice. The peptides were isolated by the regular method (see Example II, Table 1, and Table 11, below).
(§2) Organ samples were washed 3 times with ice cold DMEM-PI containing 1% bovine serum albumin (BSA), then directly incubated with 1 ml K91-kan bacteria for 1 hr. Ten ml NZY medium containing 0.2 μg/ml tetracycline (NZY/tet) was added to the bacterial culture, the mixture was incubated in a 37° C. shaker for 1 hr, then 200 μl aliquots were plated in agar plates containing 40 μg/ml tetracycline (tet/agar).
Approximately 250 to 300 individual bacterial colonies containing phage recovered from the various organs or tissues were grown for 16 hr in 5 ml NZY/tet. In some experiments, approximately 1000 individual bacteria containing phage were picked and the phage were amplified in 2 ml of NZY/tet or the entire plate containing phage was scraped, pooled and grown in bulk and processed for injection. […] Phage DNA was purified from individual bacterial colonies obtained and the DNA sequences encoding the peptides expressed by selected phage were determined (see Koivunen et al., supra, 1994b).

lung = assay: in vivo homing of phage displaying peptides to lung; parameters: species or system mice
Procedure: (§3) For lung and pancreas, a mixture of phage libraries containing 10^10 TU was diluted in 200 μl DMEM and injected into the tail vein of anesthetized BALB/c mice (2 month old; Harlan Sprague Dawley; San Diego Calif.); AVERTIN (0.017 ml/g) was used as anesthetic (Pasqualini and Ruoslahti, supra, 1996). After 1-4 minutes, mice were snap frozen in liquid nitrogen or, after about 5 minutes of phage circulation, the mice were perfused through the heart with 5-10 ml of DMEM (SIGMA; St. Louis Mo.). To recover the phage, the organs from the perfused mice or partially thawed organs from snap frozen mice were collected and weighed, then were homogenized in 1 ml DMEM-PI (DMEM containing protease inhibitors (PI); phenylmethyl sulfonyl fluoride (PMSF; 1 mM), aprotinin (20 μg/ml), leupeptin (1 μg/ml)).
as §2
(§4) Approximately 250 to 300 individual bacterial colonies containing phage recovered from the various organs or tissues were grown for 16 hr in 5 ml NZY/tet. In some experiments, approximately 1000 individual bacteria containing phage were picked and the phage were amplified in 2 ml of NZY/tet or the entire plate containing phage was scraped, pooled and grown in bulk and processed for injection. Where phage were cultured separately, the cultures were pooled and the phage were injected into mice or rats as described above for a second round of in vivo panning. In some experiments, a third or fourth round of panning was performed. Phage DNA was purified from individual bacterial colonies obtained and the DNA sequences encoding the peptides expressed by selected phage were determined (see Koivunen et al., supra, 1994b).
After two or three rounds of in vivo panning of mice injected with a cyclic CX3CX3CX3C (SEQ ID NO: 25) or a cyclic CX6C (SEQ ID NO: 26) phage display library, four peptides that homed to lung were identified.
To determine the specificity of lung homing of the individual peptides identified, phage displaying the peptides were amplified individually, diluted to the same input titer and administered to mice. Following administration, control kidney and brain organ was removed and the number of TU of phage in lung, kidney and brain was determined. The results shown in FIG. 2 reveal that 10× and 35× more phage having the peptide sequence CGFECVRQCPERC (SEQ ID NO: 1; GFE-1) bound to lung than to kidney and brain, respectively. […] The lung homing peptides CGFECVRQCPERC (SEQ ID NO: 1; GFE-1), CGFELETC (SEQ ID NO: 2; GFE-2), CTLRDRNC (SEQ ID NO: 15) and CIGEVEVC (SEQ ID NO: 16) are enriched in lung at 35×, 9×, 6× and 5×, respectively, over unselected phage (see FIG. 2).

murine MDP = biological target: T1, murine MDP (Mus musculus, UniProt P31428); assay: phage binding to COS-1 cells transfected with MDP; conditions: 5×10^6 COS-1 cells, 10^10 TU phage
T1 construct: The amplified 1.3 kb murine MDP cDNA was digested with KpnI and XbaI, and inserted into the same sites of the pcDNA3 expression vector; expressed in transfected cells; host or cells: COS-1 cells, pcDNA3 expression vector
T1 sequence (P31428 17-384): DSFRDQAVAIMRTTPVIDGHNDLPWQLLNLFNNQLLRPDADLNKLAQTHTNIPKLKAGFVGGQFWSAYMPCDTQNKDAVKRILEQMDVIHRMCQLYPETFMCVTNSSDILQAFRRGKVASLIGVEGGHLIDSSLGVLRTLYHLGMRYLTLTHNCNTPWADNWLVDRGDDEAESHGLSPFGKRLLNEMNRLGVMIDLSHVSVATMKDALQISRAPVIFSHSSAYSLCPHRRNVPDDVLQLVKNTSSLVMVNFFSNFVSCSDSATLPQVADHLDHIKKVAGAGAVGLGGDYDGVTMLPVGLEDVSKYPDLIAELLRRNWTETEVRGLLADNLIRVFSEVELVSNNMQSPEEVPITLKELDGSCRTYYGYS
Procedure: The COS-1 cell line, which is known to have low or no detectable level of MDP activity, has been used extensively to study MDP structure and function (Keynan et al., supra, 1996; Keynan et al., Biochem, J. 326:47-51 (1997)). COS-1 cells were trasfected with murine MDP and used to assay binding to SEQ ID NOS: 1 and 2 as described below.
For transfection into COS-1 cells, a murine MDP expression vector was prepared as follows. Total mouse lung RNA was isolated using Qiagen RNA purification columns (Qiagen; Santa Clarita, Calif.) and used as a template for first strand cDNA synthesis with reverse transcriptase and a mixture of random hexamers and poly-dT oligonucleotides (GIBCO/BRL; Grand Island, N.Y.). Mouse MDP cDNA (Pasqualini et al., J. Cell Biol. 130:1189-1196 (1995)) was amplified from the cDNA pool by PCR using the oligonucleotide pair: […] (SEQ ID NO: 446), which contains a KpnI adaptor, and […] (SEQ ID NO: 447), which contains an XbaI adaptor, using Taq polymerase from GIBCO/BRL. The amplified 1.3 kb murine MDP cDNA was digested with KpnI and XbaI, and inserted into the same sites of the pcDNA3 expression vector (Invitrogen; Carlsbad, Calif.) using DNA restriction enzymes and T4 DNA ligase from New England Biolabs (Beverly, Mass.). Successful cloning of the murine MDP cDNA was confirmed by DNA sequencing. Transfection of the COS-1 cells was performed with the Superfect Reagent from Qiagen as recommended by the manufacturer.
Phage binding to COS-1 cells transfected with MDP was determined as follows. Briefly, 10^7 COS-1 cells were transfected with 10 μg of either the MDP expression vector or the vector alone. After 48 hours, cells were scraped gently from the dish, washed once, and subjected to the phage binding assay or membrane dipeptidase activity assay described above. For the phage binding assay, 5×10^6 cells and 10^10 transducing units (TU) of phage input were used. For measurement of membrane dipeptidase activity, 10^6 cells were lysed in 100 μl of PBS/octylglycoside without protease inhibitors. A 10 μl aliquot of the extract was used to measure MDP activity.

uterus = assay: homing of pancreas homing phage to uterus; type: in vivo, mice
Procedure: (§5) Similar experiments were performed in pancreas using phage displaying the pancreas homing peptide, SWCEPGWCR (SEQ ID NO: 4). In these experiments, histological samples of the pancreas as well as control organs and tissues including lung and skin were prepared and examined by immunostaining as described above. […] Moreover, after intravenous injection of phage displaying SWCEPGWCR (SEQ ID NO: 4), the phage was recovered from uterus at a 6× higher level in comparison to unselected phage. Thus, SWCEPGWCR (SEQ ID NO: 4) homes to both pancreas and uterus.

pancreas [1] = assay: in vivo homing of phage displaying peptides to pancreas; parameters: species or system mice
Procedure: as §3, §2, §4
After two or three rounds of in vivo panning of mice injected with a cyclic CX7C (SEQ ID NO: 24) phage display library, various pancreas homing peptides were identified (Table 3). In particular, the peptide sequence SWCEPGWCR (SEQ ID NO: 4) appeared repeatedly in the pancreas. To determine the specificity of SWCEPGWCR (SEQ ID NO: 4), a phage displaying the sequence was amplified individually, diluted to the same input titer and administered to mice. Following administration, control brain organ was removed and the number of TU of phage in each pancreas and was determined.

pancreas [2] = assay: immunohistologic analysis of pancreas homing phage; type: in vivo, mice
Procedure: Phage displaying homing peptides were detected in lung, pancreas and skin by immunostaining histologic sections obtained 5 min after administration of phage expressing a lung, pancreas or skin homing peptide (“peptide-phage”) to a mouse. Following administration of the peptide-phage, mice were handled as described above and various organs, including lung, pancreas and skin, were removed and fixed in Bouin's solution (SIGMA). Histologic sections were prepared and reacted with anti-M13 (phage) antibodies (Pharmacia Biotech; see U.S. Pat. No. 5,622,699, supra, 1997; Pasqualini and Ruoslahti, supra, 1996). Visualization of the bound anti-M13 antibody was performed using a second antibody conjugated to peroxidase (SIGMA) according to the manufacturer's instructions.
as §5

adrenal gland = assay: in vivo panning of X7 library, adrenal gland; parameters: species or system mice
Procedure: as §1
The invention also provides adrenal gland homing peptides such as LMLPRAD (SEQ ID NO: 27) and LPRYLLS (SEQ ID NO: 28), which share a LPR motif (see Table 11), or the peptides R(Y/F)LLAGG (SEQ ID NO: 404) and RYPLAGG (SEQ ID NO: 389), which share the motif LAGG (SEQ ID NO: 430; see Table 10). The exemplified adrenal gland homing peptides were identified by injection of an X7 (SEQ ID NO: 29) library into mice. The peptides were isolated by the regular method.
as §2
Approximately 250 to 300 individual bacterial colonies containing phage recovered from the various organs or tissues were grown for 16 hr in 5 ml NZY/tet. […] Phage DNA was purified from individual bacterial colonies obtained and the DNA sequences encoding the peptides expressed by selected phage were determined (see Koivunen et al., supra, 1994b).

[3] = individually amplified phage, FIG. 2

VKSVCRT [peptide from phage recovered from liver]
% OF MOTIF AMONG ALL CLONES (liver): 11%

CGFELETC [lung homing peptide]
% OF MOTIF AMONG ALL CLONES (lung; LUNG): 5%
LUNG/BRAIN RATIO (lung; LUNG section): 9
homing of lung homing phage to control kidney or brain (lung; control organs): few phage detected in kidney or brain; also recorded: no selective homing to kidney or brain was detected
enriched in lung over unselected phage (lung; [3]): 9 ×
phage bound to lung than to brain (lung; [3]): 20 ×
phage bound to lung than to kidney (lung; [3]): 12 ×
enrichment in lung as compared to unselected phage (lung; mouse, in vivo): 9 fold
phage bound to MDP transfected cells than to mock transfected cells (murine MDP): also bound MDP transfected cells

WRQNMPL [peptide from phage recovered from liver]
% OF MOTIF AMONG ALL CLONES (liver): 6%

SRRFVGG [peptide from phage recovered from liver]
% OF MOTIF AMONG ALL CLONES (liver): 6%

SWCEPGWCR [pancreas homing peptide]
phage recovered from uterus in comparison to unselected phage (uterus; after intravenous injection): 6 ×
staining of uterus (uterus; immunostaining): some staining of blood vessels within the uterus
% OF MOTIF AMONG ALL CLONES (pancreas [1]; PANCREAS (value printed on the SKIN heading line)): 9%
pancreas/brain phage ratio (pancreas [1]; PANCREAS section, pancreas as compared to brain): 20
phage bound to pancreas than to brain (pancreas [1]; individually amplified phage): 10 × and up to 20 ×
enrichment of phage to the pancreas as compared to unselected phage (pancreas [1]; mouse, in vivo): 22 ×
selectivity for pancreas over unselected phage and over brain (pancreas [1]; mouse, in vivo): 20 fold
immunostaining of pancreas (pancreas [2]; 5 min after phage): staining in the capillaries and larger blood vessels of the exocrine pancreas
staining of lung and skin after pancreas homing phage (pancreas [2]; control tissues): nor was any staining observed in lung and skin

LMLPRAD [peptide from phage recovered from adrenal gland]
% OF MOTIF AMONG ALL CLONES (adrenal gland; ADRENAL GLAND): 11%
adrenal gland/brain homing ratio (adrenal gland; ADRENAL GLAND section, adrenal gland as compared to brain): 50
enrichment in adrenal gland as compared to brain (adrenal gland; mouse, in vivo): 50 fold
